Experimental data from patent publication US10589001B2, “Pharmaceutical formulation for use in spinal fusion” (Kuros Biosurgery AG, priority 2011, dated 2020).

Test system: Crossbred Suffolk Sheep
Test: Sheep transforaminal lumbar interbody fusion model
Format: in vivo
Method: As in example 1, PTH (i.e. TGplPTH1-34) was tested alone or with granular material. The same materials were used as in example 1, and the preparation of the product followed the same protocol as for example 1, but in this study the concentrations of TGplPTH1-34 ranged from 0.2 mg/mL to 0.7 mg/mL of the fibrin matrix. The treatment was placed only inside the interbody cage. No additional test material was placed around the cage, as in example 1.
A total of 28 Crossbred Suffolk Sheep (Castrated Weathers) with an average weight of 57 kg and age ranging from 3 to 6 years of age were chosen as experimental animals. The animals were divided into 7 groups. One group (the positive control group) was treated with autograft and the remaining groups were treated with a fibrin matrix with or without granular material, containing different concentrations of TGplPTH1-34. Groups were followed for 16 weeks, after which the animals were sacrificed. Animal care and use was conducted in accordance with federal regulations as outlined in the Animal Welfare Act. Surgery, perioperative care, housing, sanitation practices, husbandry, and veterinary care followed the recommendations of the NIH Guide for the Care and Use of Laboratory Animals (HHS, NIH Pub. No. 85-23, 1985). Animal care personnel were qualified, through training and experience, to perform required duties. […]

## CC[C@H](C)[C@H](NC(=O)[C@H](CCC(=O)O)NC(=O)[C@H](CO)NC(=O)[C@@H](NC(=O)[C@H](CO)NC(=O)[C@H](CCCNC(=N)N)NC(=O)[C@H](CC(N)=O)NC(=O)[C@H](CCCCN)NC(=O)[C@H](Cc1ccc(O)cc1)NC(=O)[C@H](CC(C)C)NC(=O)[C@@H]1CCCN1C(=O)[C@H](CO)NC(=O)[C@@H](NC(=O)[C@H](CCC(N)=O)NC(=O)[C@H](CCC(=O)O)NC(=O)[C@H](CCC(N)=O)NC(=O)[C@@H](N)CC(N)=O)C(C)C)C(C)C)C(=O)N[C@@H](CCC(N)=O)C(=O)N[C@@H](CC(C)C)C(=O)N[C@@H](CCSC)C(=O)N[C@@H](Cc1c[nH]cn1)C(=O)N[C@@H](CC(N)=O)C(=O)N[C@@H](CC(C)C)C(=O)NCC(=O)N[C@@H](CCCCN)C(=O)N[C@@H](Cc1c[nH]cn1)C(=O)N[C@@H](CC(C)C)C(=O)N[C@@H](CC(N)=O)C(=O)N[C@@H](CO)C(=O)N[C@@H](CCSC)C(=O)N[C@@H](CCC(=O)O)C(=O)N[C@@H](CCCNC(=N)N)C(=O)N[C@H](C(=O)N[C@@H](CCC(=O)O)C(=O)N[C@@H](Cc1c[nH]c2ccccc12)C(=O)N[C@@H](CC(C)C)C(=O)N[C@@H](CCCNC(=N)N)C(=O)N[C@@H](CCCCN)C(=O)N[C@@H](CCCCN)C(=O)N[C@@H](CC(C)C)C(=O)N[C@@H](CCC(N)=O)C(=O)N[C@@H](CC(=O)O)C(=O)N[C@H](C(=O)N[C@@H](Cc1c[nH]cn1)C(=O)N[C@@H](CC(N)=O)C(=O)N[C@@H](Cc1ccccc1)C(=O)O)C(C)C)C(C)C [TGplPTH1-34]
Any of the doses (0.2-0.7 mg/mL) or formulations, 16 weeks
  toxicity during the treatment period: No toxicity was observed
In vivo
  histopathologic review: no signs of osseous pathology
